Results published in PubChem BioAssay AID179 (DTP/NCI, 2004).
Active and inactive are the calls of the source.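 The calls were made as follows: active = compounds giving half or more protection of infected cells from virus-caused growth loss, again on retest; inactive = the rest.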 Where a SMILES comes first, the peptide text is derived from it.

System: CEM cells HIV-1 protection, formazan growth assay
Test: NCI AIDS Antiviral Assay
Details: for IC50: measured here: growth of uninfected CEM cells
Procedure, shortened: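 Soluble formazan readout of cell growth; CEM cells ± HIV-1; 5 drug concs. ≥50% protection → retest; ≥50% again = moderately active; reproducible 100% = confirmed active.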

Row | SMILES | EC50 [µM] | IC50 [µM] | outcome
1 | CCOC(=O)Cc1nc2nn(Cc3ccccc3)cc2c(=O)[nH]1 | > 200 | > 200 | –
2 | O=C1C2(Cl)C3(Cl)C4(OCCO4)C4(Cl)C2(Cl)C2(Cl)C1(Cl)C3(Cl)C42Cl (stereo not given) | > 200 | 28.8 | –
3 | CSCCC(C(=O)O)N(CC1(O)OCC(O)C(O)C1O)N=O (stereo not given) | – | – | inactive
4 | CNC(=O)c1n[nH]nc1Sc1c([N+](=O)[O-])ncn1C | – | – | inactive
5 | COc1ccc(/C=C2\c3cc(OC)c(OC)cc3CCN2C(=O)c2ccccc2)cc1OC | > 200 | 57.5 | –
6 | CC(C)(C)OC(=O)N1CCC(C(=O)O)CC1 | > 200 | > 200 | –
7 | CC(C)CC(N)C(=O)NC(CC(=O)O)C(=O)NC(CCCCN)C(=O)NC(C)C(=O)NC(CO)C(=O)NC(Cc1ccc(O)cc1)C(=O)NC(CO)C(=O)NC(C(=O)O)C(C)O (stereo not given) (H-LDKASYST-OH; configuration not given here) | > 56.2 | > 56.2 | –
8 | Nc1nc2c(s1)CCC2 | > 708 | 5.62 | –
9 | O=c1nc(Oc2c(F)c(F)c(F)c(F)c2F)ccn1C1OC(CO)C(O)C1O (stereo not given) | > 200 | 120 | –
10 | CN1C2CCC1/C(=C/c1cccc3c1OCO3)C(=O)/C2=C\c1cccc2c1OCO2 | > 6.76 | > 6.76 | –
11 | COc1ccc(C2=C/C(=C/c3ccc(O)cc3O)C(=O)O2)cc1 | > 200 | 36.3 | –
12 | Cc1ccc(S(=O)(=O)OC[C@@H]2CO2)cc1 | > 115 | 14.1 | –
13 | CCOC(=O)C(Cc1ccc2c(c1)CCC2)(Cc1ccc2c(c1)CCC2)C(=O)OCC | > 200 | 69.2 | –
14 | CC1(C)CC2C(=O)c3ccccc3NC2c2ccccc21 (stereo not given) | > 2 | 0.269 | –
15 | O=c1[nH]c(=O)n(C2CC(O)C(CO)O2)cc1C#Cc1c(F)c(F)c(F)c(F)c1F (stereo not given) | > 603 | 110 | –
16 | CC#N.CC#N.COC(=O)[C@H]1CCC(=O)[N-]1.COC(=O)[C@H]1CCC(=O)[N-]1.COC(=O)[C@H]1CCC(=O)[N-]1.COC(=O)[C@H]1CCC(=O)[N-]1.[Rh+2].[Rh+2] | > 200 | > 200 | –
17 | CCC(CC)n1cc(C(=O)NC(=O)NCCCCCOC(=O)CCCCCCCCCCC(=O)OCCCCCNC(=O)NC(=O)c2cn(C(CC)CC)c(=O)[nH]c2=O)c(=O)[nH]c1=O | > 20.9 | > 20.9 | –
18 | CCOC(=O)NC(=O)c1cn(CCN2CCN(C(=O)CCCCCCCCCCNc3ncnc4nc[nH]c34)CC2)c(=O)[nH]c1=O | – | – | inactive
19 | O=C(N/N=C1\CCc2ccccc2C1)N/N=C1\CCc2ccccc2C1 | > 200 | 51.3 | –
20 | O=C(c1cccs1)N(C(=S)N1CCN(c2ccccc2)CC1)C1CCCCC1 | > 12.6 | > 12.6 | –
21 | CC(=O)NC1C(OCc2ccccc2)OC(CO)C(O)C1OC(C)C(=O)N[C@@H](C)C(=O)N[C@H](CCC(=O)OCCNc1c2ccccc2nc2cccc([N+](=O)[O-])c12)C(N)=O (stereo not given in full) | > 0.02 | 0.000339 | –

Row | SMILES | EC50 [µM] | IC50 [µM] | outcome
22 | O=C1NC(=O)C(=CN2C(=O)/C(=C/c3ccc(O)cc3)SC2=S)C(=O)N1 | > 200 | 41.7 | –
23 | COC(=O)/C(C#N)=C(\N)C(Cl)(Cl)Cl | – | – | inactive
24 | COc1ccccc1NC(=S)N/C=C(\C#N)C(=O)c1ccc2ccccc2c1 | > 200 | 37.2 | –
25 | O=C1OC(C(O)CO)C(O)=C1Nc1ccc(S(=O)(=O)c2ncc(NC3=C(O)C(C(O)CO)OC3=O)s2)cc1 (stereo not given) | > 200 | 21.9 | –
26 | c1ccc(SC(CCCCOC2CCCCO2)Sc2ccccc2)cc1 (stereo not given) | – | – | inactive
27 | COC(=O)C1(Cc2ccc3c(c2)CCC3)Cc2ccccc2C1=O (stereo not given) | > 200 | 10.7 | –
28 | N#Cc1ccccc1-c1nc2c3c(c(N)ccc3n1)C(=O)c1ccccc1-2 | > 200 | 40.7 | –
29 | O=c1cc(P(=O)(O)O)[nH]c(=O)[nH]1 | – | – | inactive
30 | O=C1CSC(c2cccc([N+](=O)[O-])c2)N1c1ccc(-c2ccc(-n3c(-c4ccccc4)nc4ccccc4c3=O)cc2)cc1 (stereo not given) | > 200 | 28.2 | –
31 | CCC1CC(C)=CCN1S(=O)(=O)c1ccc(C)cc1 (stereo not given) | > 18.6 | > 18.6 | –
32 | COc1ccc(Cl)cc1NC(=O)Nc1cc(C)ccn1 | > 200 | > 200 | –
33 | FC(F)(F)c1nc2cc(SSc3cc4nc(C(F)(F)F)[nH]c4cc3Cl)c(Cl)cc2[nH]1 | > 200 | 7.41 | –
34 | Sc1ccccc1N=Cc1ccc(C=Nc2ccccc2S)cc1 | > 200 | > 200 | –
35 | Clc1cc2nc3[nH]c4ccccc4c3nc2cc1Cl | > 83.2 | > 83.2 | –
36 | O=c1[nH]c(O)c(/C=N/C(=S)NCc2ccccc2)c(=O)[nH]1 | > 200 | 195 | –
37 | CC1CCCN2C(=O)CN(N3CCOCC3)CC(=O)N12 (stereo not given) | > 200 | > 200 | –
38 | COP(=O)(OC)C(N)Cc1c[nH]c2ccccc12 (stereo not given) | > 200 | > 200 | –
39 | c1ccc(SC(CCCCC(Sc2ccccc2)Sc2ccccc2)Sc2ccccc2)cc1 | – | – | inactive
40 | CSc1n[nH]c(=O)c2nc[nH]c12 | > 245 | > 245 | –
41 | C=C(C)[C@@H]1CC[C@]2(CNC(=O)CC(C)(C)CC(=O)O)CC[C@]3(C)[C@H](CC[C@@H]4[C@@]5(C)CC[C@H](NC(=O)CC(C)(C)CC(=O)O)C(C)(C)[C@@H]5CC[C@]43C)[C@@H]12 | > 200 | 18.2 | –
